{"source": "paper PMC10290130", "about": "“The potential of phenothiazinium dyes as cytotoxicity markers in cisplatin-treated cells” (Scientific Reports, 2023)", "key": {"[1]": {"test_system": "Vero cells and fibroblasts", "test": "DMSO cytotoxicity, 72 h, read with phenothiazinium dyes, NR or MTT", "assay_type": "cell-based, African green monkey; human", "settings": "DMSO in concentrations above 5%", "procedure": "(§1) Cells were treated with either DMSO (Vero cells and primary fibroblasts) or cisplatin (LLC-MK2, MCF 10A, and MDA-MB-231). […] After treatment with DMSO and cisplatin, labeling with MTT or NR was performed as described previously[27],[28] with modifications[29],[30]. Cells incubated with phenothiazinium dyes were processed by the same protocol used for NR. […] The cells incubated with MTT were diluted with 100 µl of DMSO. The plates were read at 540 nm (NR) or 570 nm (MTT) in an ELISA reader (Epoch Biotek). Three (LLC-MK2 and MDA-MB-231) and two (Vero cells, human primary fibroblasts and MCF 10A) independent experiments were performed.\n(§2) Values for area under the curve were calculated with GraphPad Prism 8.0 software (San Diego, California USA). For cells incubated with DMSO or cisplatin, the percentage of inhibition was calculated from the absorbance of treated samples relative to their non-treated controls. These values were used to calculate the half-maximal inhibitory concentration (IC50) of cisplatin and DMSO, which was done with Compusyn software (version 1.0)[31]."}, "Vero cells [2]": {"test_system": "Vero cells", "settings": "72 h of incubation; cited from earlier work"}, "Vero cells [3]": {"test_system": "Vero cells", "test": "Light microscopy of phenothiazinium dye accumulation in cells", "assay_type": "cell-based, African green monkey", "settings": "during incubation with cells; phenothiazinium dyes 100 µM, NR 50 µg/ml", "procedure": "The accumulation of phenothiazine dyes in cells was detected by light and confocal microscopies. Firstly, Vero cells were incubated with MB, NMB, TBO, and DMMB (100, 50, 25 and 12.5 µM) for 3 h, 37 °C, 5% CO2 and washed with PBS. […] For confocal detection of phenothiazinium dyes, Vero cell cultures were incubated with 10 μM of MB, NMB, TBO or DMMB for 30 min, 37 °C, with 5% CO2. For all procedures, non-treated controls were incubated with RPMI under the same conditions. The cultures were washed with PBS and treated with trypsin for 10 min, 37 °C and 5% CO2. The cells were transferred to slides and analyzed by confocal microscopy with excitation/emission wavelengths of 543/600 nm, respectively."}, "[4]": {"parameters": "method as in PMID 23758207", "settings": "cited from earlier work"}, "MDA-MB-231 [5]": {"test_system": "MDA-MB-231", "parameters": "method as in PMID 33261142", "settings": "read-out: concentration inhibiting 50% of growth; cited from earlier work"}, "LLC-MK2": {"test_system": "LLC-MK2", "test": "Cisplatin cytotoxicity, 72 h, read with phenothiazinium dyes, NR or MTT", "assay_type": "cell-based, rhesus monkey", "procedure": "as §1, §2"}, "MCF 10A": {"test_system": "MCF 10A", "test": "Cisplatin cytotoxicity, 72 h, read with phenothiazinium dyes, NR or MTT", "assay_type": "cell-based, human", "procedure": "as §1, §2"}, "MDA-MB-231 [6]": {"test_system": "MDA-MB-231", "test": "Cisplatin cytotoxicity, 72 h, read with phenothiazinium dyes, NR or MTT", "assay_type": "cell-based, human", "procedure": "as §1, §2"}}, "note": "Read-outs that look alike come from different tables or passages of the source.", "data": [{"smiles": "C[S+](C)[O-]", "note": "[DMSO, dimethyl sulfoxide]", "values": [{"measurement": "cell inhibition", "setting": "[1]", "value": "> 70", "unit": "%"}]}, {"smiles": "Cc1cc(N(C)C)cc2[s+]c3cc(N(C)C)cc(C)c3nc12.[Cl-]", "note": "[DMMB, 3,7-bis(dimethylamino)-1,9-dimethylphenothiazin-5-ium chloride]", "values": [{"measurement": "concentrations with toxic effects", "setting": "Vero cells [2]", "value": "below 10 µM"}]}, {"smiles": "Cc1cc2nc3ccc(N(C)C)cc3nc2cc1N.Cl", "note": "[NR, 3-amino-7-dimethylamino-2-methylphenazine hydrochloride]", "values": [{"measurement": "dye precipitation / crystal formation", "setting": "Vero cells [3]", "value": "Crystals of NR formed"}, {"measurement": "pKa", "setting": "[4]", "value": 6.9}, {"measurement": "log P", "setting": "[4]; free base state", "value": 1.9}]}, {"smiles": "N.N.[Cl][Pt][Cl]", "note": "[cisplatin, cis-diammineplatinum (II) dichloride]", "values": [{"measurement": "IC50", "setting": "MDA-MB-231 [5]", "value": 6, "unit": "µM"}, {"measurement": "concentrations at which cells were resistant", "setting": "LLC-MK2", "value": "< 50", "unit": "µM"}, {"measurement": "IC50", "setting": "LLC-MK2; indicator DMMB", "value": 29.5, "unit": "µM"}, {"measurement": "IC50", "setting": "LLC-MK2; indicator MB", "value": 19, "unit": "µM"}, {"measurement": "IC50", "setting": "LLC-MK2; indicator MTT", "value": 25.2, "unit": "µM"}, {"measurement": "IC50", "setting": "LLC-MK2; indicator NMB", "value": 28.2, "unit": "µM"}, {"measurement": "IC50", "setting": "LLC-MK2; indicator NR", "value": 34.9, "unit": "µM"}, {"measurement": "IC50", "setting": "LLC-MK2; indicator TBO", "value": 30.4, "unit": "µM"}, {"measurement": "concentrations at which cells were resistant", "setting": "MCF 10A", "value": "below 25 µM"}, {"measurement": "IC50", "setting": "MCF 10A; indicator DMMB", "value": 14.8, "unit": "µM"}, {"measurement": "IC50", "setting": "MCF 10A; indicator MB", "value": 9.26, "unit": "µM"}, {"measurement": "IC50", "setting": "MCF 10A; indicator MTT", "value": 11.9, "unit": "µM"}, {"measurement": "IC50", "setting": "MCF 10A; indicator NMB", "value": 17.1, "unit": "µM"}, {"measurement": "IC50", "setting": "MCF 10A; indicator NR", "value": 13.5, "unit": "µM"}, {"measurement": "IC50", "setting": "MCF 10A; indicator TBO", "value": 14.6, "unit": "µM"}, {"measurement": "cell inhibition", "setting": "MDA-MB-231 [6]; cisplatin at concentrations above 12.5 µM", "value": "more than 50%"}, {"measurement": "IC50", "setting": "MDA-MB-231 [6]; indicator NMB", "value": 1.83, "unit": "µM"}, {"measurement": "IC50", "setting": "MDA-MB-231 [6]; indicator NR", "value": 8.44, "unit": "µM"}]}]}
